# Test system: NRK cells
# Experiment: Toxicity by trypan blue exclusion and replating of detached cells
# Format: cell-based, rat
# Description: The activities of the crude and high performance liquid chromatrography (HPLC)-purified GRGDSP peptide were similar. […] To study the correlation of detaching capacity with the cell attachment-promoting and attachment-inhibiting effects established previously (Pierschbacher and Ruoslahti, 1984a; 1984b), each of the following listed peptides was tested for its ability to detach cells: […]
smiles,measurement,setting,value
"N=C(N)NCCC[C@H](NC(=O)CN)C(=O)NCC(=O)N[C@@H](CC(=O)O)C(=O)N[C@@H](CO)C(=O)N1CCC[C@H]1C(=O)O [GRGDSP, GLY-ARG-GLY-ASP-SER-PRO]",replating of aggregates washed free of the peptide,NRK aggregates,attached to the dish
same,cell death by trypan blue exclusion,detached NRK cells,no cell death could be detected

# Reference: US4879237A, “Use of peptides in control of cell attachment and detachment” (La Jolla Cancer Research Foundation, priority 1985, dated 1989)
